In patent publication EP0338372A2, “Solubilized pro-drugs” (AMERICAN CYANAMID COMPANY, priority 1988, dated 1989):

Assays:
Type in all cases: in vivo, BDF1 mice
melanotic melanoma B16 = assay: Melanotic Melanoma B16 test
L1210 leukemia cells = assay: Lymphocytic Leukemia L1210 test
[1] = system: lymphocytic leukemia P388; assay: Lymphocytic leukemia P388 test
[2] = Dose 3.25 mg/kg intraperitoneally on days 1, 5 and 9
[3] = Dose 6.25 mg/kg intraperitoneally on days 1, 5 and 9
[4] = Dose 12.5 mg/kg intraperitoneally on days 1, 5 and 9
[5] = Dose 0.39 mg/kg intraperitoneally on days 1, 5 and 9
[6] = Dose 0.78 mg/kg intraperitoneally on days 1, 5 and 9
[7] = Dose 1.56 mg/kg intraperitoneally on days 1, 5 and 9
[8] = Dose 3.12 mg/kg intraperitoneally on days 1, 5 and 9
[9] = Dose 0.19 mg/kg intraperitoneally on days 1, 5 and 9
[10] = Dose 25 mg/kg intraperitoneally on days 1, 5 and 9
[11] = Dose 50 mg/kg intraperitoneally on days 1, 5 and 9
[12] = Dose 100 mg/kg intraperitoneally on days 1, 5 and 9
[13] = Dose 200 mg/kg intraperitoneally on days 1, 5 and 9

O=C(O)CCC(=O)N1CCN=C1NN=Cc1c2ccccc2c(C=NNC2=NCCN2C(=O)CCC(=O)O)c2ccccc12 [2,2[9,10-Anthracenediylbis(methylidene-1-hydrazinyl-2-ylidene)]bis[4,5-dihydro-gamma-oxo-1H-imidazole-1-butanoic Acid]]
Median Survival (melanotic melanoma B16; [2]): >60 days
T/C x 100 % (melanotic melanoma B16; [2]): >273%
Median Survival (melanotic melanoma B16; [3]): >60 days
T/C x 100 % (melanotic melanoma B16; [3]): >273%
Median Survival (melanotic melanoma B16; [4]): 55.5 days
T/C x 100 % (melanotic melanoma B16; [4]): 252%
Median Survival (L1210 leukemia cells; [5]): 11.5 days
T/C x 100 % (L1210 leukemia cells; [5]): 135%
Median Survival (L1210 leukemia cells; [6]): 11.2 days
T/C x 100 % (L1210 leukemia cells; [6]): 132%
Median Survival (L1210 leukemia cells; [7]): 12 days
T/C x 100 % (L1210 leukemia cells; [7]): 141%
Median Survival (L1210 leukemia cells; [8]): 12.3 days
T/C x 100 % (L1210 leukemia cells; [8]): 145%
Median Survival (L1210 leukemia cells; [3]): 12.2 days
T/C x 100 % (L1210 leukemia cells; [3]): 144%
Median Survival (L1210 leukemia cells; [4]): 13.2 days
T/C x 100 % (L1210 leukemia cells; [4]): 155%
Median Survival [1, 9]: 15 days
T/C x 100 % [1, 9]: 150%
Median Survival [1, 5]: 15.5 days
T/C x 100 % [1, 5]: 155%
Median Survival [1, 6]: 17 days
T/C x 100 % [1, 6]: 170%
Median Survival [1, 7]: 17 days
T/C x 100 % [1, 7]: 170%
Median Survival [1, 8]: 19 days
T/C x 100 % [1, 8]: 190%
Median Survival [1, 3]: 19 days
T/C x 100 % [1, 3]: 190%
Median Survival [1, 4]: 23 days
T/C x 100 % [1, 4]: 230%

CC(=O)N1CCN=C1N(N=Cc1c2ccccc2c(C=NN(C(C)=O)C2=NCCN2)c2ccccc12)C(C)=O [2-[[10-[[Acetyl(1-acetyl-4,5-dihydro-1H-imidazol-2-yl)hydrazono]methyl]-9-anthracenyl]methylene]-1-(4,5-dihydro-1H-imidazol-2-yl)hydrazide of Acetic Acid]
Median Survival (melanotic melanoma B16; [4]): 28 days
T/C x 100 % (melanotic melanoma B16; [4]): 127%
Median Survival (melanotic melanoma B16; [10]): 30 days
T/C x 100 % (melanotic melanoma B16; [10]): 136%
Median Survival (melanotic melanoma B16; [11]): 29.5 days
T/C x 100 % (melanotic melanoma B16; [11]): 134%
Median Survival (melanotic melanoma B16; [12]): 37 days
T/C x 100 % (melanotic melanoma B16; [12]): 168%
Median Survival (melanotic melanoma B16; [13]): 40 days
T/C x 100 % (melanotic melanoma B16; [13]): 182%
Median Survival [1, 3]: 12.5 days
T/C x 100 % [1, 3]: 125%
Median Survival [1, 4]: 13 days
T/C x 100 % [1, 4]: 130%
Median Survival [1, 10]: 15.5 days
T/C x 100 % [1, 10]: 155%
Median Survival [1, 11]: 16.5 days
T/C x 100 % [1, 11]: 165%
Median Survival [1, 12]: 17 days
T/C x 100 % [1, 12]: 170%
Median Survival [1, 13]: 17.5 days
T/C x 100 % [1, 13]: 175%

CC(C)(C)CC(=O)N1CCN=C1N(N=Cc1c2ccccc2c(C=NN(C(=O)CC(C)(C)C)C2=NCCN2C(=O)CC(C)(C)C)c2ccccc12)C(=O)CC(C)(C)C [2,2'-(9,10-Anthracenediyldimethylidyne)bis[1-[1-(3,3-dimethyl-1-oxobutyl)-4,5-dihydro-1H-imidazol-2-yl]-hydrazide] of 3,3-dimethylbutanoic acid]
Median Survival [1, 12]: 12 days
T/C x 100 % [1, 12]: 109%
Median Survival [1, 13]: 13 days
T/C x 100 % [1, 13]: 118%

CCCC(=O)N1CCN=C1NN=Cc1c2ccccc2c(C=NNC2=NCCN2C(=O)CCC)c2ccccc12 [2,2-(9,10-Anthracenediylbis(methylidyne-1-hydrazinyl-2-ylidene)]bis4,5-dihydro-1-(1-oxobutyl)-1H-imidazole]]
Median Survival (melanotic melanoma B16; [10]): 26 days
T/C x 100 % (melanotic melanoma B16; [10]): 118%
Median Survival (melanotic melanoma B16; [11]): 24.5 days
T/C x 100 % (melanotic melanoma B16; [11]): 111%
Median Survival (melanotic melanoma B16; [12]): 28.5 days
T/C x 100 % (melanotic melanoma B16; [12]): 130%
Median Survival (melanotic melanoma B16; [13]): 27.5 days
T/C x 100 % (melanotic melanoma B16; [13]): 125%
Median Survival [1, 4]: 12.5 days
T/C x 100 % [1, 4]: 125%
Median Survival [1, 10]: 12.5 days
T/C x 100 % [1, 10]: 125%
Median Survival [1, 11]: 14 days
T/C x 100 % [1, 11]: 140%
Median Survival [1, 12]: 14.5 days
T/C x 100 % [1, 12]: 145%
Median Survival [1, 13]: 15.5 days
T/C x 100 % [1, 13]: 155%

CC(=O)N1CCN=C1N(N=Cc1c2ccccc2c(C=NN(C(C)=O)C2=NCCN2C(C)=O)c2ccccc12)C(C)=O [2,2'-(9,10-Anthracenediyldimethylidyne)bis[1-(1-acetyl-4,5-dihydro-1H-imidazol-2-yl)hydrazide] of acetic acid]
Median Survival [1, 4]: 10.5 days
T/C x 100 % [1, 4]: 105%
Median Survival [1, 11]: 10.5 days
T/C x 100 % [1, 11]: 105%
Median Survival [1, 12]: 11 days
T/C x 100 % [1, 12]: 110%

O=C(c1ccco1)N1CCN=C1N(N=Cc1c2ccccc2c(C=NN(C(=O)c2ccco2)C2=NCCN2C(=O)c2ccco2)c2ccccc12)C(=O)c1ccco1 [2,2'-(9,10-Anthracenediyldimethylidyne)bis[1-[1-(2-furanylcarbonyl)-4,5-dihydro-1H-imidazol-2-yl]hydrazide] of 2-furancarboxylic acid]
Median Survival [1, 13]: 12 days
T/C x 100 % [1, 13]: 120%

COCC(=O)N1CCN=C1N(N=Cc1c2ccccc2c(C=NN(C(=O)COC)C2=NCCN2C(=O)COC)c2ccccc12)C(=O)COC [2,2-(9,10-Anthracenediyldimethylidyne)bis[1-[4,5-dihydro-1-(methoxyacetyl)-1H-imidazo)-2-yl]hydrazide] of Methoxyacetic Acid]
Median Survival [1, 8]: 14.5 days
T/C x 100 % [1, 8]: 132%
Median Survival [1, 4]: 16.5 days
T/C x 100 % [1, 4]: 150%
Median Survival [1, 11]: 16.5 days
T/C x 100 % [1, 11]: 150%
Median Survival [1, 13]: 16.5 days
T/C x 100 % [1, 13]: 150%

O=C(c1ccccc1)N1CCN=C1N(N=Cc1c2ccccc2c(C=NN(C(=O)c2ccccc2)C2=NCCN2C(=O)c2ccccc2)c2ccccc12)C(=O)c1ccccc1 [2,2-(9,14-Anthracenediyldimethylidyne)bis[1-(1-benzoyl-4,5-dihydro-1H-imidazol-2-yl)hydrazide] of Benzoic Acid]
Median Survival (melanotic melanoma B16; [4]): 29.5 days
T/C x 100 % (melanotic melanoma B16; [4]): 134%
Median Survival (melanotic melanoma B16; [10]): 32 days
T/C x 100 % (melanotic melanoma B16; [10]): 145%
Median Survival (melanotic melanoma B16; [11]): 40 days
T/C x 100 % (melanotic melanoma B16; [11]): 182%
Median Survival (melanotic melanoma B16; [12]): 57.5 days
T/C x 100 % (melanotic melanoma B16; [12]): 261%
Median Survival (melanotic melanoma B16; [13]): 50 days
T/C x 100 % (melanotic melanoma B16; [13]): 227%
Median Survival [1, 6]: 15.5 days
T/C x 100 % [1, 6]: 155%
Median Survival [1, 7]: 17.5 days
T/C x 100 % [1, 7]: 175%
Median Survival [1, 8]: 17 days
T/C x 100 % [1, 8]: 170%
Median Survival [1, 3]: 18 days
T/C x 100 % [1, 3]: 180%
Median Survival [1, 4]: 19 days
T/C x 100 % [1, 4]: 190%
Median Survival [1, 10]: 19.5 days
T/C x 100 % [1, 10]: 195%
Median Survival [1, 11]: 20 days
T/C x 100 % [1, 11]: 200%
Median Survival [1, 12]: 23 days
T/C x 100 % [1, 12]: 320%
Median Survival [1, 13]: 32 days
T/C x 100 % [1, 13]: 320%

CCCCCCc1ccc(C(=O)N2CCN=C2N(N=Cc2c3ccccc3c(C=NN(C(=O)c3ccc(CCCCCC)cc3)C3=NCCN3C(=O)c3ccc(CCCCCC)cc3)c3ccccc23)C(=O)c2ccc(CCCCCC)cc2)cc1 [2,2'-(9,10-Anthracenediyldimethylidyne)bis[1-[1-(4-hexylbenzoyl)-4,5-dihydro-1H-imidazol-2-yl]hydra-zide] of 4-hexylbenzoic acid]
Median Survival [1, 13]: 14 days
T/C x 100 % [1, 13]: 127%

CCCC(=O)N1CCN=C1N(N=Cc1c2ccccc2c(C=NN(C(=O)CCC)C2=NCCN2C(=O)CCC)c2ccccc12)C(=O)CCC [2,2'-(9,10-Anthracenediyldimethylidyne)bis[1-[4,5-dihydro-1-(1-oxobutyl)-1H-imidazol-2-yl]hydra-zide] of butanoic acid]
Median Survival [1, 13]: 11.5 days
T/C x 100 % [1, 13]: 105%

Cc1ccc(S(=O)(=O)N2CCN=C2NN=Cc2c3ccccc3c(C=NNC3=NCCN3S(=O)(=O)c3ccc(C)cc3)c3ccccc23)cc1 [2,2-[9,10-Anthracenediylbis(methylidyne-1-hydrazinyl-2-ylidene)]bis[4,5-dihydro-1-[(4-methylphenyl)sulfonyl]-1H-imidazole]]
Median Survival [1, 11]: 14 days
T/C x 100 % [1, 11]: 127%
Median Survival [1, 13]: 14 days
T/C x 100 % [1, 13]: 127%
